In ChEMBL document CHEMBL1255549 (Bioorg Med Chem Lett, 2010):

Biological target: Maltase-glucoamylase (Homo sapiens, UniProt O43451)
Test: Inhibition of human recombinant N-terminal domain of maltase-glucoamylase after 60 mins by glucose oxidase assay

Sequence of Maltase-glucoamylase (O43451 whole entry, the tested form may be a part): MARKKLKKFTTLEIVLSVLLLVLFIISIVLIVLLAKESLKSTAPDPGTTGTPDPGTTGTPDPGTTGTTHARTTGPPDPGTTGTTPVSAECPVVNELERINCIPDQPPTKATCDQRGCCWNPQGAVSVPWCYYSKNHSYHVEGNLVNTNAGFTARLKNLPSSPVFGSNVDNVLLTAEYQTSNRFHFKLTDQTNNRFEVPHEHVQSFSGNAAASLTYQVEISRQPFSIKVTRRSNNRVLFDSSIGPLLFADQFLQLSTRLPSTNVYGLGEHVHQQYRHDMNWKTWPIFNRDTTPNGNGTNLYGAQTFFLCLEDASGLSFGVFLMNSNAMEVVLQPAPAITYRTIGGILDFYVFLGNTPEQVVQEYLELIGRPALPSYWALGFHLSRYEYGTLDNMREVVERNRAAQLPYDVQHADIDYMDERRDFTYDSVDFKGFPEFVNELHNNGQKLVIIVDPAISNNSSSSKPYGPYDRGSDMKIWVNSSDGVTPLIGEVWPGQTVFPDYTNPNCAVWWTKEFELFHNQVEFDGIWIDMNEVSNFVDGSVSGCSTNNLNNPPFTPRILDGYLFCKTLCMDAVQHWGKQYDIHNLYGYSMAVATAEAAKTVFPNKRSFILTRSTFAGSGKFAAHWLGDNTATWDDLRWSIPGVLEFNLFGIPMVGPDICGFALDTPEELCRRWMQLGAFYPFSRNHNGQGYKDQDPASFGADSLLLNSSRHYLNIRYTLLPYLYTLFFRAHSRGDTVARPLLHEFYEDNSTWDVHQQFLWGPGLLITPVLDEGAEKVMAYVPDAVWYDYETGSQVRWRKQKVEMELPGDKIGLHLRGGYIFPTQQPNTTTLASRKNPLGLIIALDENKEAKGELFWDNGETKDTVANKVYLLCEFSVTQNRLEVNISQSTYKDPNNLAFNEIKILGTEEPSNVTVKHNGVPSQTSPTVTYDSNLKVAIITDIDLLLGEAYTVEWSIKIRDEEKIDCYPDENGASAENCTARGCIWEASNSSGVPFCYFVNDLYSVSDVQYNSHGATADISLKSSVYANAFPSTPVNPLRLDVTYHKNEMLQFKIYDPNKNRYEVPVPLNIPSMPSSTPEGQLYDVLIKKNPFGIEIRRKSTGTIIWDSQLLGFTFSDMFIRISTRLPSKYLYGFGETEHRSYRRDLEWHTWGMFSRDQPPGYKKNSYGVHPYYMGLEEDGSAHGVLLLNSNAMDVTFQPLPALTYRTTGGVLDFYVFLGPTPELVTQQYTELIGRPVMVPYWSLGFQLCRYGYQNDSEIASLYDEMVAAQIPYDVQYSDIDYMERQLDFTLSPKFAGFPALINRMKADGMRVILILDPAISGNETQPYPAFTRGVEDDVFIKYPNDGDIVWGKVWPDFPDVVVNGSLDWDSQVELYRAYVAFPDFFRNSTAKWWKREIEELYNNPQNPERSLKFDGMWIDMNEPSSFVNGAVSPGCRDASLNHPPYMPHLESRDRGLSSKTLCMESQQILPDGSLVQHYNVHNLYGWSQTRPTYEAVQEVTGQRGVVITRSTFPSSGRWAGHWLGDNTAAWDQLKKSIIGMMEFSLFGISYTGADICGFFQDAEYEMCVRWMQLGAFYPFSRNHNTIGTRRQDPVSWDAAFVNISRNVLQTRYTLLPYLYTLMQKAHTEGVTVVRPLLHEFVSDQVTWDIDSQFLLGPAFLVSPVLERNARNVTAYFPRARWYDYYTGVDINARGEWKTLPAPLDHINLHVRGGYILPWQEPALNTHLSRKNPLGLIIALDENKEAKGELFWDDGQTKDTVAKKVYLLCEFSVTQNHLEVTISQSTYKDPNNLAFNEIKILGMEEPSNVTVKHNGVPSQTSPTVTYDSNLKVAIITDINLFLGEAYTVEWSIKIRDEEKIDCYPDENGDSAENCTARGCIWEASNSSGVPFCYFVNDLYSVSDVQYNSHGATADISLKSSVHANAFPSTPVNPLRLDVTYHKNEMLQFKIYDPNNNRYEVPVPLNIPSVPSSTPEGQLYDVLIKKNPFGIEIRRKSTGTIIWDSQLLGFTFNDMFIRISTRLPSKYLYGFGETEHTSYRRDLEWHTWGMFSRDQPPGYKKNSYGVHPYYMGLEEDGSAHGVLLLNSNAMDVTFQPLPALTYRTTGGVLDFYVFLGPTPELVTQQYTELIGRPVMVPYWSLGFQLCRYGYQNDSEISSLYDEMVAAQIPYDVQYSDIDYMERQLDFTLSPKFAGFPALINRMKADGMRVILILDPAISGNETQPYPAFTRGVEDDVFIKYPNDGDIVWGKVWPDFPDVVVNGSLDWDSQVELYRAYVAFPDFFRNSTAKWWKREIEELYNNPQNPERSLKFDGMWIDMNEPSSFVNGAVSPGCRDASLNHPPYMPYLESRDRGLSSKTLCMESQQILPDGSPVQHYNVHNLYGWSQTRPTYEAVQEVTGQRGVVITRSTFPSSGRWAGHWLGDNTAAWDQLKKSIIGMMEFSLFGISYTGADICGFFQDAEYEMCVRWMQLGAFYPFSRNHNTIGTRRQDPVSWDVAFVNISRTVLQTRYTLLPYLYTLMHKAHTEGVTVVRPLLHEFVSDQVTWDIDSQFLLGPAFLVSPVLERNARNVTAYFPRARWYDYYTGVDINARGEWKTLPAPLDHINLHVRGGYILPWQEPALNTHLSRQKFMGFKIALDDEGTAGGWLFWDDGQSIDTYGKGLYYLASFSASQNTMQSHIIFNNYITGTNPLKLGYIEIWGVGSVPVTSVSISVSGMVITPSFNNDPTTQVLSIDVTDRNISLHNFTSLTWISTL

Ki: 500 nM
Compound: CO[C@@H]([C@H](O)[C@@H](O)CO)[C@H](O)C[S@+]1C[C@@H](O)[C@H](O)[C@H]1CO
